As usually defined, the IC50 is the midpoint of a concentration-inhibition curve.

Test [1] has as its target Capsid scaffolding protein / assemblin protease (Human cytomegalovirus) (UniProt P16753). The test can be described thus: In vitro inhibitory activity against human cytomegalovirus (hCMV) protease in the absence of zinc.
Test [2] has the same target. In words: In vitro inhibitory activity against human cytomegalovirus (hCMV) protease in the presence of zinc.
The target is the same in test [3]. Described as above. The source holds these as a separate data set.

Some results are limits rather than exact numbers.

Capsid scaffolding protein / assemblin protease (Human cytomegalovirus), sequence (P16753 whole entry, looked up): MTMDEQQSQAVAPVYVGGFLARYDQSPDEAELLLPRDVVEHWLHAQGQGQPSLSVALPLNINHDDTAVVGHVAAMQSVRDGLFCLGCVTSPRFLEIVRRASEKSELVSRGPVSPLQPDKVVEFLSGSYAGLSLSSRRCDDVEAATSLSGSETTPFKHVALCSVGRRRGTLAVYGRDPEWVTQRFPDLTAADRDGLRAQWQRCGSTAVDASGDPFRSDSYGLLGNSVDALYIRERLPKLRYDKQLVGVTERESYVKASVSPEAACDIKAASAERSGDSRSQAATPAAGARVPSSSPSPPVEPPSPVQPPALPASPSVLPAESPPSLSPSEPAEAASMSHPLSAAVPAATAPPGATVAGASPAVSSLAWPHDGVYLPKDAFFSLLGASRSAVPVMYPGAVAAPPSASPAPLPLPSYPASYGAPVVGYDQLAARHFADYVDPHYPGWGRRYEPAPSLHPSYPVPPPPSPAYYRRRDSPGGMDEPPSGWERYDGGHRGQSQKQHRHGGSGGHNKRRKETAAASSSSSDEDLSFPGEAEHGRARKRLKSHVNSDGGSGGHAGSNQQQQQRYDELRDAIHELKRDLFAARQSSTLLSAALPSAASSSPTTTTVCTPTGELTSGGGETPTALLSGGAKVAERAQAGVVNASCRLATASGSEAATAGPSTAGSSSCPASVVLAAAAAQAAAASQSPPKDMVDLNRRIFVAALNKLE

As to `CCCCCCCCSc1ncc(Cc2cn(CC(=O)NC(Cc3ccccc3)C(=O)OCc3ccccc3)cn2)[nH]1` (stereo not drawn) [2-{2-[4-(2-Octylsulfanyl-1H-imidazol-4-ylmethyl)-imidazol-1-yl]-acetylamino}-3-phenyl-propionic acid benzyl ester], the IC50 in test [1] was 125 µM; in test [2], 41 µM.
For `CCCCCCCCSc1ncc(Cc2cn(CC(=O)NC(CC(=O)OCc3ccccc3)C(=O)OCc3ccccc3)cn2)[nH]1` (stereo not drawn) [2-{2-[4-(2-Octylsulfanyl-1H-imidazol-4-ylmethyl)-imidazol-1-yl]-acetylamino}-succinic acid dibenzyl ester], the IC50 in test [1] was determined as 15 µM; in test [3], 5 µM.
For `CCCCCCCCSc1ncc(Cc2cn(Cc3ccc(C(=O)OC)cc3)cn2)[nH]1` [4-[4-(2-Octylsulfanyl-1H-imidazol-4-ylmethyl)-imidazol-1-ylmethyl]-benzoic acid methyl ester], in that order: over 150 µM and 7 µM.
For `CCCCCCCCSc1ncc(Cc2cn(Cc3ccc(C(=O)NCC4CC4)cc3)cn2)[nH]1` [N-Cyclopropylmethyl-4-[4-(2-octylsulfanyl-1H-imidazol-4-ylmethyl)-imidazol-1-ylmethyl]-benzamide], in that order: over 150 µM and 15 µM.

Values taken from BindingDB's records for doi:10.1016/s0960-894x(00)00462-5 (Smithkline Beecham Pharmaceuticals, 2001).
